Biological target: T1, Full-length USP19 (Homo sapiens, UniProt O94966)
T1 construct: Full-length USP19 was purchased from Boston Biochem (E-576); purchased Boston Biochem E-576
T1 sequence (O94966 1-1318): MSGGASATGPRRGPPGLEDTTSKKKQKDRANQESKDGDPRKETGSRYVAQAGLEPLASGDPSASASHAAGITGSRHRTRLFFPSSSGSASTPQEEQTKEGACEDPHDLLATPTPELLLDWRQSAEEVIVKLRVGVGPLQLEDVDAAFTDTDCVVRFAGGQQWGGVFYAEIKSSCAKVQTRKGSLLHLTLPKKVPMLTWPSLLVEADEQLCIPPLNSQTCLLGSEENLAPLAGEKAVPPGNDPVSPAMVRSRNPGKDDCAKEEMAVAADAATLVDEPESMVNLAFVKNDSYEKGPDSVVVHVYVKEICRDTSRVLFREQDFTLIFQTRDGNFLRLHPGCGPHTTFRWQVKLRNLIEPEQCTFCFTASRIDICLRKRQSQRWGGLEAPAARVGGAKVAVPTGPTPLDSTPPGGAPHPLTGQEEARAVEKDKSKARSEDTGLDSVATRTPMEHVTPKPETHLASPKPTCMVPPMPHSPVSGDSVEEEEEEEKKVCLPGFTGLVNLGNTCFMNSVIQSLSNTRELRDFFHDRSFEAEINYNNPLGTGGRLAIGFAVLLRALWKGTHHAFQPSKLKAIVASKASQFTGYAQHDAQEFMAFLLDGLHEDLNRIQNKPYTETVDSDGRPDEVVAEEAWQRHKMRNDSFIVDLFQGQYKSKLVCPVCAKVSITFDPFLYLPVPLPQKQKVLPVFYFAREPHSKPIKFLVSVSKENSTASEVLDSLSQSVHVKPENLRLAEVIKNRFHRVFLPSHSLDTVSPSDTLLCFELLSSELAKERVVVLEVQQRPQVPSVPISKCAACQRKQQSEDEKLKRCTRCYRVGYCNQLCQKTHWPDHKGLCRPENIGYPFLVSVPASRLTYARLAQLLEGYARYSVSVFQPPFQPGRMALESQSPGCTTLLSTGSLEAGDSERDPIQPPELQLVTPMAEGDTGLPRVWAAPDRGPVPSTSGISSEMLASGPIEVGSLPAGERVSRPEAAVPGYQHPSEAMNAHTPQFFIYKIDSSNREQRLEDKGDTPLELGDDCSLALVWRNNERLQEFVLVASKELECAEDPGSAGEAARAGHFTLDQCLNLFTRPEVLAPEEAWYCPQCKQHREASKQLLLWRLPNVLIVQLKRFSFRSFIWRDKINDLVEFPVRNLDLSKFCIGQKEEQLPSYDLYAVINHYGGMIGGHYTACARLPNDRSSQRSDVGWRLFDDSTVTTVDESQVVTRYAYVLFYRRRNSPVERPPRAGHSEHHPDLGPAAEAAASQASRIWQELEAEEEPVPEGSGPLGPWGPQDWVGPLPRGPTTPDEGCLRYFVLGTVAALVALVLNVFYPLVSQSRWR
Test: USP19 fluorescence polarisation (FP) homogeneous assay with Ubiquitin-Lys-TAMRA substrate
Format: biochemical
Details: 2.5 nM USP19, 30 min pre-incubation, average of at least two duplicate experiments
How it was run: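 Full-length USP19 preincubated 30 min at RT with inhibitor (200 μM to 2 μM series, 8–18 points) before adding 500 nM Ubiquitin-Lys-TAMRA substrate.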

IC50 [µM] | Structure (SMILES)
5 to 50 | C[C@H](CC(F)(F)F)C(=O)N1CCC(O)(Cn2ccc3ccc(F)cc3c2=O)C2(CCCC2)C1 (stereo partly drawn) [Example 135, 7-Fluoro-2-((10-hydroxy-7-((R)-4,4,4-trifluroo-2-methylbutanoyl)-7-azaspiro[4.5]decan-10-yl)methyl)isoquinolin-1(2H)-one]
5 to 50 | C[C@H](CC(F)(F)F)C(=O)N1CCC(O)(Cn2ccc3ccncc3c2=O)C2(CCCC2)C1 (stereo partly drawn) [Example 136, 2-((10-Hydroxy-7-((R)-4,4,4-trifluoro-2-methylbutanoyl)-7-azaspiro[4.5]decan-10-yl)methyl)-2,7-naphthyridin-1(2H)-one]
< 0.5 | C[C@H](CC1CCCCC1)C(=O)N1CCC(O)(Cn2ccc3ccncc3c2=O)C2(CCCC2)C1 (stereo partly drawn) [Example 137, 2-((7-((R)-3-Cyclohexyl-2-methylpropanoyl)-10-hydroxy-7-azaspiro[4.5]decan-10-yl)methyl)-2,7-naphthyridin-1(2H)-one]
5 to 50 | C[C@H](CC1CCCCC1)C(=O)N1CCC(O)(Cn2ccc3occc3c2=O)C2(CCCC2)C1 (stereo partly drawn) [Example 138, 5-((7-((R)-3-Cyclohexyl-2-methylpropanoyl)-10-hydroxy-7-azaspiro[4.5]decan-10-yl)methyl)furo[3,2-c]pyridin-4(5H)-one]
0.5 to 5 | COc1ccc2c(=O)n(CC3(O)CCN(C(=O)[C@H](C)CC4CCCCC4)CC34CCCC4)cnc2c1 (stereo partly drawn) [Example 139, 3-((7-((R)-3-Cyclohexyl-2-methylpropanoyl)-10-hydroxy-7-azaspiro[4.5]decan-10-yl)methyl)-7-methoxyquinazolin-4(3H)-one]
50 to 250 | COc1cc2ccn(CC3(O)CCN(C(=O)[C@H](C)CC(F)(F)F)CC34CCCC4)c(=O)c2cc1OC (stereo partly drawn) [Example 140, 2-((10-Hydroxy-7-((R)-4,4,4-trifluoro-2-methylbutanoyl)-7-azaspiro[4.5]decan-10-yl)methyl)-6,7-dimethoxyisoquinolin-1(2H)-one]
5 to 50 | CCn1ncc2c(=O)n(CC3(O)CCN(C(=O)[C@H](C)CC(F)(F)F)CC34CCCC4)cnc21 (stereo partly drawn) [Example 141, 1-Ethyl-5-((10-hydroxy-7-((R)-4,4,4-trifluroo-2-methylbutanoyl)-7-azaspiro[4.5]decan-10-yl)methyl)-1,5-dihydro-4H-pyrazolo[3,4-d]pyrimidin-4-one]
5 to 50 | C[C@H](CC1CCCCC1)C(=O)N1CCC(O)(Cn2ccc3sccc3c2=O)C2(CCCC2)C1 (stereo partly drawn) [Example 142, 5-((7-((R)-3-Cyclohexyl-2-methylpropanoyl)-10-hydroxy-7-azaspiro[4.5]decan-10-yl)methyl)thieno[3,2-c]pyridin-4(5H)-one]
< 0.5 | C[C@H](CC1CCCCC1)C(=O)N1CCC(O)(Cn2cnc3ccc(Cl)cc3c2=O)C2(CCCC2)C1 (stereo partly drawn) [Example 143, 6-Chloro-3-((7-((R)-3-cyclohexyl-2-methylpropanoyl)-10-hydroxy-7-azaspiro[4.5]decan-10-yl)methyl)quinazolin-4(3H)-one]
0.5 to 5 | C[C@H](CC1CCCCC1)C(=O)N1CCC(O)(Cn2cnc3ccsc3c2=O)C2(CCCC2)C1 (stereo partly drawn) [Example 144, 3-((7-((R)-3-Cyclohexyl-2-methylpropanoyl)-10-hydroxy-7-azaspiro[4.5]decan-10-yl)methyl)thieno[3,2-d]pyrimidin-4(3H)-one]
0.5 to 5 | C[C@H](CC1CCCCC1)C(=O)N1CCC(O)(Cn2cc(C(=O)N(C)C)c3ccccc3c2=O)C2(CCCC2)C1 (stereo partly drawn) [Example 145, 2-((7-((R)-3-Cyclohexyl-2-methylpropanoyl)-10-hydroxy-7-azaspiro[4.5]decan-10-yl)methyl)-N,N-dimethyl-1-oxo-1,2-dihydroisoquinoline-4-carboxamide]
0.5 to 5 | COc1cc2ccn(CC3(O)CCN(C(=O)[C@H](C)CC4CCCCC4)CC34CCCC4)c(=O)c2cc1OC (stereo partly drawn) [Example 146, 2-((7-((R)-3-Cyclohexyl-2-methylpropanoyl)-10-hydroxy-7-azaspiro[4.5]decan-10-yl)methyl)-6,7-dimethoxyisoquinolin-1(2H)-one]
0.5 to 5 | C[C@H](CC(F)(F)F)C(=O)N1CCC(O)(Cn2cnc3ccc(Cl)cc3c2=O)C2(CCCC2)C1 (stereo partly drawn) [Example 147, 6-Chloro-3-((10-hydroxy-7-((R)-4,4,4-trifluoro-2-methylbutanoyl)-7-azaspiro[4.5]decan-10-yl)methyl)quinazolin-4(3H)-one]
5 to 50 | C[C@H](CC(F)(F)F)C(=O)N1CCC(O)(Cn2cnc3ccc(F)cc3c2=O)C2(CCCC2)C1 (stereo partly drawn) [Example 148, 6-Fluoro-3-((10-hydroxy-7-((R)-4,4,4-trifluoro-2-methylbutanoyl)-7-azaspiro[4.5]decan-10-yl)methyl)quinazolin-4(3H)-one]
5 to 50 | C[C@H](CC(F)(F)F)C(=O)N1CCC(O)(Cn2cnc3cc(F)c(Cl)cc3c2=O)C2(CCCC2)C1 (stereo partly drawn) [Example 149, 6-Chloro-7-fluoro-3-((10-hydroxy-7-((R)-4,4,4-trifluoro-2-methylbutanoyl)-7-azaspiro[4.5]decan-10-yl)methyl)quinazolin-4(3H)-one]
50 to 250 | C[C@H](CC1CCCCC1)C(=O)N1CCC(O)(Cn2ccc3nccnc3c2=O)C2(CCCC2)C1 (stereo partly drawn) [Example 150, 6-((7-((R)-3-Cyclohexyl-2-methylpropanoyl)-10-hydroxy-7-azaspiro[4.5]decan-10-yl)methyl)pyrido[3,4-b]pyrazin-5(6H)-one]
< 0.5 | C[C@H](CC1CCCCC1)C(=O)N1CCC(O)(Cn2cnc3cc(F)c(F)cc3c2=O)C2(CCCC2)C1 (stereo partly drawn) [Example 151, 3-((7-((R)-3-Cyclohexyl-2-methylpropanoyl)-10-hydroxy-7-azaspiro[4.5]decan-10-yl)methyl)-6,7-difluoroquinazolin-4(3H)-one]
50 to 250 | CCn1cc2c(=O)n(CC3(O)CCN(C(=O)[C@H](C)CC4CCCCC4)CC34CCCC4)cnc2n1 (stereo partly drawn) [Example 152, 5-((7-((R)-3-Cyclohexyl-2-methylpropanoyl)-10-hydroxy-7-azaspiro[4.5]decan-10-yl)methyl)-2-ethyl-2,5-dihydro-4H-pyrazolo[3,4-d]pyrimidin-4-one]
0.5 to 5 | Cc1nc2cnccc2c(=O)n1CC1(O)CCN(C(=O)[C@H](C)CC2CCCCC2)CC12CCCC2 (stereo partly drawn) [Example 153, 3-((7-((R)-3-Cyclohexyl-2-methylpropanoyl)-10-hydroxy-7-azaspiro[4.5]decan-10-yl)methyl)-2-methylpyrido[3,4-d]pyrimidin-4(3H)-one]
< 0.5 | C[C@H](CC1CCCCC1)C(=O)N1CCC(O)(Cn2cnc3ccc(F)cc3c2=O)C2(CCCC2)C1 (stereo partly drawn) [Example 154, 3-((7-((R)-3-Cyclohexyl-2-methylpropanoyl)-10-hydroxy-7-azaspiro[4.5]decan-10-yl)methyl)-6-fluoroquinazolin-4(3H)-one]
< 0.5 | C[C@H](CC1CCCCC1)C(=O)N1CCC(O)(Cn2cnc3cc(F)c(Cl)cc3c2=O)C2(CCCC2)C1 (stereo partly drawn) [Example 155, 6-Chloro-3-((7-((R)-3-cyclohexyl-2-methylpropanoyl)-10-hydroxy-7-azaspiro[4.5]decan-10-yl)methyl)-7-fluoroquinazolin-4(3H)-one]
5 to 50 | C[C@H](CC(F)(F)F)C(=O)N1CCC(O)(Cn2cnc3cc(F)ccc3c2=O)C2(CCCC2)C1 (stereo partly drawn) [Example 156, 7-Fluoro-3-((10-hydroxy-7-((R)-4,4,4-trifluoro-2-methylbutanoyl)-7-azaspiro[4.5]decan-10-yl)methyl)quinazolin-4(3H)-one]
0.5 to 5 | C[C@H](CC1CCCCC1)C(=O)N1CCC(O)(Cn2cnc3ccncc3c2=O)C2(CCCC2)C1 (stereo partly drawn) [Example 157, 3-((7-((R)-3-Cyclohexyl-2-methylpropanoyl)-10-hydroxy-7-azaspiro[4.5]decan-10-yl)methyl)pyrido[4,3-d]pyrimidin-4(3H)-one]
0.5 to 5 | C[C@H](CC1CCCCC1)C(=O)N1CCC(O)(Cn2ccc3ncncc3c2=O)C2(CCCC2)C1 (stereo partly drawn) [Example 158, 6-((7-((R)-3-Cyclohexyl-2-methylpropanoyl)-10-hydroxy-7-azaspiro[4.5]decan-10-yl)methyl)pyrido[4,3-d]pyrimidin-5(6H)-one]

From US20220033397A1, “PHARMACEUTICAL COMPOUNDS AND THEIR USE AS INHIBITORS OF UBIQUITIN SPECIFIC PROTEASE 19 (USP19)” (ALMAC DISCOVERY LIMITED, priority 2018, published 2022)
